In brackets after ≈: the same amount, converted by molar mass.
Key:
[1] = test system: human pancreatic cancer cell line SW; test: MTT cell cytotoxicity assay, SW pancreatic cancer cell line; assay type: cell-based; conditions: 48 hours
Procedure: A human pancreatic cancer cell line SW was purchased from Institute of Biochemistry and Cell Biology, Shanghai Institutes for Biological Sciences, Chinese Academy of Sciences (SIBCB, CAS, China). SW cell was grown in RPMI 1640 medium supplemented with 10% FBS and maintained in a humidified 5% CO2 atmosphere at 37° C. and the culture medium was changed once in 2 days.
The cytotoxic effect of CuB on SW cell was determined using MTT (3-[4,5-dimethylthiazol-2-yl]-2,5-diphenyl tetrazolium bromide) labeled cell cytotoxicity assay. A total of 1×10^4 cells were seeded into a 96-well plate for 24 hours prior to cucurbitacin B (CuB) treatment. They were then treated with different dosages of CuB for 48 hours. After the treatment, 20 μl of MTT (5 mg/ml) was added to each well and incubated for 4 hrs. Then the medium was discarded and 100 μl of dimethyl sulfoxide was added. The absorbance at 570 nm was then measured by FLUOstar OPTIMA equipment (BMG, LABTECH GmbH, Germany). The percentage of inhibition against different dosages of CuB were plotted using the Prism software and the 50% inhibition concentration (IC50) were obtained.

HL60 and U937 cells = test: Cell differentiation: CD11b expression by flow cytometry; assay type: cell-based, human; conditions: 96-hour treatment
Procedure: HL60 and U937 cells were incubated with vary doses of cucurbitacin B for 96 hours at 37° C. For analysis of cell differentiaion, cells were then incubated with either R-phycoerythrin-conjugated murine anti-human CD11b antibody (DAKO, Carpinteria, Calif.). For analysis of cell cycle, cells were washed and fixed with chilled methanol, and incubated on ice for 30 minutes prior to staining with propidium iodide. All analyses were performed by flow cytometry.
Following a 96-hour treatment with cucurbitacin B, HL60 (FIG. 14A) and U937 (FIG. 14B) cells were incubated with RPE-conjugated CD11b-specific antibody (dark grey) or RPE-conjugated IgGI control antibody (light grey), and flow cytometry was performed.

PARP = test: Western blot of PARP cleavage in HL60 cells; assay type: cell-based, human
Procedure: Control cells, as well as cells treated with cucurbitacin B or cucurbitacin D, were harvested and collected by centrifugation. Whole cell extracts were then prepared by lysing the cells using 4% sodium dodecyl sulfate (SDS) gel sample buffer. Cell extracts were boiled for 10 min and chilled on ice, subjected to 12% SDS-polyacrylamide gel electrophoresis, and transferred to a PVDF membrane. Each membrane was cut into to two pieces with one piece incubated at 4° C. overnight with antibodies against cell cycle signaling proteins, such as ERK, phosphorlated-ERK, p38, phosphorlated-p38, Cyclin E, Retinoblastoma, phosphalated-Retinoblastoma and c-myc, and apoptotic protein (PARP). β-actin was used as a control for protein loading. All antibodies were obtained from Cell signaling Technologies (USA). Then membranes were incubated at 37° C. for 1 h with secondary antibody conjugated with peroxidase, and the signal was detected using chemiluminescence detection reagent. The relative protein level was calculated as the ratio of the optical density of the protein of interest to that of β-actin.

Panc-1 and SW cells = test: Cell cycle analysis by flow cytometry, pancreatic cells; assay type: cell-based, human; conditions: different periods
Procedure: Panc-1 and SW cells were incubated with cucurbitacin B for different periods at 37° C. At specific time points, cells were washed and fixed with chilled 80% ethanol, and incubated on ice for 30 min. prior to staining with propidium iodide. All analyses were performed by flow cytometry.

[2] = test system: colon cancer cell line (HT29); test: MTT cell cytotoxicity assay, HT29; assay type: cell-based, human; conditions: Homo sapiens, HT-29; 48 hours; read-out: IC50
Procedure: Three human cancer cell lines (HepG2(liver), HT29(colon) and MCF-7(breast)) were purchased from American Type Culture Collection (ATCC, Manassas, Va., USA). The cells were cultured in RPMI 1640 medium supplemented with 5% (v/v) fetal bovine serum (FBS) and 100 units/ml penicillin and streptomycin (Invitrogen Life Technologies) in a humidified 5% CO2 atmosphere at 37° C.
The cytotoxic effect of CuB and CuD on these three cancer cell lines were determined using MTT (3-[4,5-dimethylthiazol-2-yl]-2,5-diphenyl tetrazolium bromide) labeled cell cytotoxicity assay. A total of 1×10^4 cells were seeded into a 96-well plate for 24 hours prior to cucurbitacin B (CuB) or cucurbitacin D (CuD) treatment. They were then treated with different dosages of CuB/CuD for 48 hours. After the treatment, 20 μl of MTT (5 mg/ml) was added to each well and incubated for 4 hrs. Then the medium was discarded and 100 μl of dimethyl sulfoxide was added. The absorbance at 570 nm was then measured by using FLUOstar OPTIMA equipment (BMG, LABTECH GmbH, Germany). The percentage of inhibition against different dosages of CuB/CuD were plotted using the Prism software and the 50% inhibition concentration (IC50) were obtained.

[3] = Gross and microscopic examination of organs of treated mice; assay type: in vivo, nude mice; conditions: i.p. 1 mg/kg three times a week, six weeks
Procedure: One million human MDA-MB-231 breast cancer cells/Matrigel (vol 1:1) were inoculated isotopically into the breasts of nude mice. The mice received intraperitoneal injections of 1 mg/ml of cucurbitacin B 3 times a week starting on the day after inoculation of the cells. The longitudinal and the transverse diameter, and the height were measured once a week. The volume was calculated by multiplying these elements, and the relative tumor size was determined by dividing the product by the initial volume. After 6 weeks, the mice were sacrificed to weigh the dissected tumors. At that moment, blood was taken for analysis, where organs and tumors were inspected, dissected, fixed and stained with hematoxylin-eosin and/or Ki-67. Data were expressed as mean±SD. Statistical analysis was performed by student's t test.
Six weeks after i.p. treatment with either vehicle or cucurbitacin B 1 mg/kg three times a week, mice were euthanized and tumors were observed and weighed. Results represented the mean and SD of 9 treated and 9 control tumors. Statistical analysis was performed by student's t test.

CC(=O)OC(C)(C)/C=C/C(=O)[C@](C)(O)C1[C@H](O)C[C@@]2(C)C3CC=C4C(C[C@H](O)C(=O)C4(C)C)[C@]3(C)C(=O)C[C@]12C (stereo partly drawn) [cucurbitacin B]
IC50 [1]: ~0.274 µM | expression of cell surface marker CD11b (HL60 and U937 cells): enhanced expression | apoptosis marker PARP (PARP): cleavage of PARP | cell cycle effect (Panc-1 and SW cells): arrest at G1 and/or G2 phase | IC50 [2]: 0.31 µg/mL (≈ 0.555 µM) | gross and microscopic examination of the liver, spleen, and peritoneum [3]: no significant difference

Source: US20090247495A1, “CU[…] AND USES THEREOF” (priority 2007, published 2009)
